Measured values from patent US12115152B2, “Pan-RAF kinase inhibitor and use thereof” (HEFEI INSTITUTES OF PHYSICAL SCIENCE, CHINESE ACADEMY OF …, priority 2019, dated 2024).

Legend:
Assay type in all cases: cell-based
[1] = Effect on proliferation of cells, Cell Titer-Glo, 72 hours; conditions: Mus musculus, BaF3 cells
Procedure: The compounds of the present invention were tested for their effect on growth of cancer cells (Table 2), to further evaluate the compounds herein for their inhibitory effect on proliferation of cancer cells and their selectivity in inhibiting proliferation of cancer cells. […]
In the example, solutions of the test compound in DMSO at different concentrations (0.000508 μM, 0.00152 μM, 0.00457 μM, 0.0137 μM, 0.0411 μM, 0.123 μM, 0.370 μM, 1.11 μM, 3.33 μM, 10 μM) was added to the above cells respectively. The cells were incubated for 72 hours. The number of viable cells was detected with a Cell Titer-Glo (Promega, USA) Cell Viability Assay Kit by quantifying the ATP in viable cells. The values of GI50 (unit) of the compounds of the present invention against each of the test cells were determined.

[2] = system: colorectal cancer cell COLO205 (expressing BRAF-V600E mutant kinase); assay: Effect on proliferation of cancer cells, Cell Titer-Glo, 72 hours; conditions: Homo sapiens, COLO 205
Procedure: (§1) The compounds of the present invention were tested for their effect on growth of cancer cells (Table 2), to further evaluate the compounds herein for their inhibitory effect on proliferation of cancer cells and their selectivity in inhibiting proliferation of cancer cells.
(§2) The cells were incubated for 72 hours. The number of viable cells was detected with a Cell Titer-Glo (Promega, USA) Cell Viability Assay Kit by quantifying the ATP in viable cells. The values of GI50 (unit) of the compounds of the present invention against each of the test cells were determined.

[3] = system: melanoma cell A375 (expressing BRAF-V600E mutant kinase); assay: as above; conditions: Homo sapiens, A-375
Procedure: as §1, §2

[4] = system: mouse BaF3-FL-BRAF-V600E (stably expressing full-length BRAF-V600E mutant kinase); assay: as above
Procedure: as §1, §2

Structure (SMILES) | GI50 [1] | GI50 [2] | GI50 [3] | GI50 [4]
Cc1ccc(NC(=O)c2cccc(C(F)(F)F)c2)cc1-n1cc(-c2cncc(-c3cccnc3)c2)cn1 [Example 2, N-(3-(4-([3,3′-bipyridyl]-5-yl)-1H-pyrazol-1-yl)-4-methylphenyl)-3-(trifluoromethyl)benzamide] | 1700 nM | 48 nM | 36 nM | –
Cc1ccc(NC(=O)c2cccc(C(C)(C)C#N)c2)cc1-n1cc(-c2cncc(-c3ccncc3)c2)cn1 [Example 5, N-(3-(4-([3,4′-bipyridyl]-5-yl)-1H-pyrazol-1-yl)-4-methylphenyl)-3-(2-cyanoprop-2-yl)benzamide] | 510 nM | 17 nM | 19 nM | 1.9 nM
Cc1ccc(NC(=O)c2cccc(C(F)(F)F)c2)cc1-n1cc(-c2cncc(OCCCN3CCOCC3)c2)cn1 [Example 48, N-(4-methyl-3-(4-(5-(3-morpholinopropoxy)pyrid-3-yl)-1H-pyrazol-1-yl)phenyl)-3-(trifluoromethyl)benzamide] | 520 nM | 32 nM | 14 nM | 4.1 nM
Cc1ccc(NC(=O)c2cccc(C(C)C#N)c2)cc1-n1cc(-c2cnc3[nH]ccc3c2)cn1 (stereo not drawn) [Example 179, N-(3-(4-(1H-pyrrolo[2,3-b]pyrid-5-yl)-1H-pyrazol-1-yl)-4-methylphenyl)-3-(1-cyanoethyl)benzamide] | 3600 nM | 140 nM | 250 nM | –
Cc1ccc(NC(=O)c2cccc(-c3ccsc3)c2)cc1-n1cc(-c2cnc3[nH]ccc3c2)cn1 [Example 183, N-(3-(4-(1H-pyrrolo[2,3-b]pyrid-5-yl)-1H-pyrazol-1-yl)-4-methylphenyl)-3-(thien-3-yl)benzamide] | 3400 nM | 150 nM | 300 nM | –
Cc1ccc(NC(=O)c2ccc(C)c(C(F)(F)F)c2)cc1-n1cnc(-c2cnc3[nH]ccc3c2)c1 [Example 175, N-(3-(4-(1H-pyrrolo[2,3-b]pyrid-5-yl)-1H-imidazol-1-yl)-4-methylphenyl)-4-methyl-3-(trifluoromethyl)benzamide] | 1600 nM | 150 nM | 100 nM | –
Cc1ccc(NC(=O)Cc2cccc(C(F)(F)F)c2)cc1-n1cc(-c2cncc(OCCCN3CCOCC3)c2)cn1 [Example 49, N-(4-methyl-3-(4-(5-(3-morpholinopropoxy)pyrid-3-yl)-1H-pyrazol-1-yl)phenyl)-2-(3-(trifluoromethyl)phenyl)acetamide] | 500 nM | 52 nM | 41 nM | 7.2 nM
Cc1ccc(NC(=O)c2cccc(C(C)(C)C#N)c2)cc1-n1cc(-c2cncc(-c3cccnc3)c2)cn1 [Example 3, N-(3-(4-([3,3′-bipyridyl]-5-yl)-1H-pyrazol-1-yl)-4-methylphenyl)-3-(2-cyanoprop-2-yl)benzamide] | 1000 nM | 10 nM | 21 nM | < 0.3 nM
Cc1ccc(NC(=O)c2cccc(C(F)(F)F)c2)cc1-n1cnc(-c2cnc3[nH]ccc3c2)c1 [Example 177, N-(3-(4-(1H-pyrrolo[2,3-b]pyrid-5-yl)-1H-imidazol-1-yl)-4-methylphenyl)-3-(trifluoromethyl)benzamide] | 2700 nM | 65 nM | 120 nM | –
Cc1ccc(NC(=O)c2cccc(C(C)(C)C#N)c2)cc1-n1cc(-c2cnccc2OCC2COC2)cn1 [Example 87, 3-(2-cyanoprop-2-yl)-N-(4-methyl-3-(4-(4-(oxetan-3-ylmethoxy)pyrid-3-yl)-1H-pyrazol-1-yl)phenyl)benzamide] | 2500 nM | 65 nM | 36 nM | < 0.3 nM
Cc1ccc(NC(=O)c2cccc(C(C)(C)C#N)c2)cc1-n1cc(-c2cnccc2OC2CCOC2)cn1 (stereo not drawn) [Example 68, 3-(2-cyanoprop-2-yl)-N-(4-methyl-3-(4-(4-((tetrahydrofuran-3-yl)oxy)pyrid-3-yl)-1H-pyrazol-1-yl)phenyl)benzamide] | 1800 nM | 66 nM | 27 nM | 4.3 nM
Cc1ccc(NC(=O)c2cccc(C(C)(C)C#N)c2)cc1-n1cnc(-c2cnc3[nH]ccc3c2)c1 [Example 176, N-(3-(4-(1H-pyrrolo[2,3-b]pyrid-5-yl)-1H-imidazol-1-yl)-4-methylphenyl)-3-(2-cyanoprop-2-yl)benzamide] | 920 nM | 130 nM | 89 nM | –
Cc1ccc(NC(=O)c2cccc(C(F)(F)F)c2)cc1-n1cc(-c2cncc(-c3ccc(N4CCN(C)CC4)cc3)c2)cn1 [Example 31, N-(4-methyl-3-(4-(5-(4-(4-methylpiperazin-1-yl)phenyl)pyrid-3-yl)-1H-pyrazol-1-yl)phenyl)-3-(trifluoromethyl)benzamide] | – | 98 nM | 100 nM | –
Cc1ccc(NC(=O)c2cccc(C(F)(F)F)c2)cc1-n1cc(-c2cnc3[nH]ccc3c2)cn1 [Example 170, N-(3-(4-(1H-pyrrolo[2,3-b]pyrid-5-yl)-1H-pyrazol-1-yl)-4-methylphenyl)-3-(trifluoromethyl)benzamide] | 4800 nM | 280 nM | 270 nM | –
Cc1ccc(NC(=O)c2ccc(CN3CCN(C)CC3)c(C(F)(F)F)c2)cc1-n1cc(-c2cncc(-c3ccncc3)c2)cn1 [Example 8, N-(3-(4-([3,4′-bipyridyl]-5-yl)-1H-pyrazol-1-yl)-4-methylphenyl)-4-((4-methylpiperazin-1-yl)methyl)-3-(trifluoromethyl)benzamide] | 310 nM | 28 nM | 27 nM | 10 nM
Cc1ccc(NC(=O)c2ccc3cccnc3c2)cc1-n1cc(-c2cnc3[nH]ccc3c2)cn1 [Example 182, N-(3-(4-(1H-pyrrolo[2,3-b]pyrid-5-yl)-1H-pyrazol-1-yl)-4-methylphenyl)quinoline-7-carboxamide] | 2000 nM | 400 nM | 500 nM | –
Cc1ccc(NC(=O)c2ccc(CN3CCN(C)CC3)c(C(F)(F)F)c2)cc1-n1cc(-c2cnc3[nH]ccc3c2)cn1 [Example 168, N-(3-(4-(1H-pyrrolo[2,3-b]pyrid-5-yl)-1H-pyrazol-1-yl)-4-methylphenyl)-4-((4-methylpiperazin-1-yl)methyl)-3-(trifluoromethyl)benzamide] | 3300 nM | 28 nM | 46 nM | –
Cc1ccc(NC(=O)c2cccc(C(C)(C)C#N)c2)cc1-n1cnc(-c2cncc(N3CCOCC3)c2)c1 [Example 109, 3-(2-cyanoprop-2-yl)-N-(4-methyl-3-(4-(5-morpholinopyrid-3-yl)-1H-imidazol-1-yl)phenyl)benzamide] | 3800 nM | 110 nM | 60 nM | –
Cc1ccc(NC(=O)c2cccc(C(C)(C)C#N)c2)cc1-n1cc(-c2cncc(-c3ccc(N4CCN(C)CC4)cc3)c2)cn1 [Example 30, N-(4-methyl-3-(4-(5-(4-(4-methylpiperazin-1-yl)phenyl)pyrid-3-yl)-1H-pyrazol-1-yl)phenyl)-3-(2-cyanoprop-2-yl)benzamide] | – | 52 nM | 47 nM | 10 nM
Cc1ccc(NC(=O)c2cc(C(C)(C)C)on2)cc1-n1cnc(-c2cnc3[nH]ccc3c2)c1 [Example 178, N-(3-(4-(1H-pyrrolo[2,3-b]pyrid-5-yl)-1H-imidazol-1-yl)-4-methylphenyl)-5-(tert-butyl)isoxazole-3-carboxamide] | 3700 nM | 300 nM | 140 nM | –
Cc1ccc(NC(=O)c2cccc(C(C)(C)C#N)c2)cc1-n1cc(-c2cnc3[nH]ccc3c2)cn1 [Example 171, N-(3-(4-(1H-pyrrolo[2,3-b]pyrid-5-yl)-1H-pyrazol-1-yl)-4-methylphenyl)-3-(2-cyanoprop-2-yl)benzamide] | 2600 nM | 360 nM | 110 nM | –
Cc1ccc(NC(=O)c2cccc(C(F)(F)F)c2)cc1-n1cc(-c2cncc(-c3ccncc3)c2)cn1 [Example 13, N-(3-(4-([3,4′-bipyridyl]-5-yl)-1H-pyrazol-1-yl)-4-methylphenyl)-3-(trifluoromethyl)benzamide] | 1300 nM | 62 nM | 81 nM | –
Cc1ccc(NC(=O)c2ccc(CN3CCN(C)CC3)c(C(F)(F)F)c2)cc1-n1cnc(-c2cnc3[nH]ccc3c2)c1 [Example 174, N-(3-(4-(1H-pyrrolo[2,3-b]pyrid-5-yl)-1H-imidazol-1-yl)-4-methylphenyl)-4-((4-methylpiperazin-1-yl)methyl)-3-(trifluoromethyl)benzamide] | 960 nM | 110 nM | 160 nM | –
Cc1cn(-c2cc(C(=O)Nc3ccc(C)c(-n4cc(-c5cnc6[nH]ccc6c5)cn4)c3)cc(C(F)(F)F)c2)cn1 [Example 167, N-(3-(4-(1H-pyrrolo[2,3-b]pyrid-5-yl)-1H-pyrazol-1-yl)-4-methylphenyl)-3-(4-methyl-1H-imidazol-1-yl)-5-(trifluoromethyl)benzamide] | 3900 nM | 670 nM | 330 nM | –
